# According to patent US20240139188A1, “Arylamide Compounds For Treatment And Prevention Of Fungal Infections” (priority 2022, published 2024):
# Tested on: A. fumigatus
# Test: Protein kinase inhibitor (PKI) library screen with or without BRI
# Conditions: for growth, PKI (20 μM): PKI 20 μM alone; for growth, PKI (20 μM) + BRI (20 μM): PKI 20 μM together with BRI 20 μM; for activity at 20 µM: Aspergillus fumigatus, 48 h, read-out: growth, PKI (20 μM)
# Method: A protein kinase inhibitors (PKI) library was also screened in combination with BRI. In total, 58 PKI were analyzed. Briefly, 100 μL of liquid MM containing 2.5×10^3 conidia/mL of the A. fumigatus wild-type strain plus 10% alamar blue was inoculated with increasing concentration of PKI (5-80 μM) in the presence (or not) of BRI (20μM) and incubated 48 hours at 37° C. without shaking. […] Plates were incubated for 48 hours at 37° C. without shaking. All experiments containing alamar blue were, after 48 hours incubation, read spectrophotometically by fluorescence and analyzed as previously described. Experiments were repeated at least three times.
# To assess the mechanism of action of BRI, a collection of 58 protein kinase inhibitors (PKI, at a concentration of 20 μM; Table 4) was screened for A. fumigatus growth and corresponding metabolic activity alone or together with 20 μM BRI (Table 4).
SMILES,"growth, PKI (20 μM)","growth, PKI (20 μM) + BRI (20 μM)",activity at 20 µM
Nc1ncnc2c1c(I)cn2[C@@H]1O[C@H](CO)[C@@H](O)[C@H]1O [5 + iodo tubercidin],+ (+: growth ≤60% compared to no treatment),++ (++: growth ≥80% compared to no treatment),
Clc1ccc(C2(c3ccc(-c4cn[nH]c4)cc3)CCNCC2)cc1 [AT7867],++ (++: growth ≥80% compared to no treatment),++ (++: growth ≥80% compared to no treatment),
N#Cc1ccc2[nH]c(O)c(-c3ccc(CN4CCOCC4)cn3)c2c1 [AZD1080],,++ (++: growth ≥80% compared to no treatment),> 80%
COc1ccc(-c2ccc3c(N4CCOC[C@@H]4C)nc(N4CCOC[C@@H]4C)nc3n2)cc1CO [AZD + 8055],++ (++: growth ≥80% compared to no treatment),++ (++: growth ≥80% compared to no treatment),
O=C(NCCCNc1nc(Nc2cccc(NC(=O)N3CCCC3)c2)ncc1I)c1cccs1 [BX + 795],++ (++: growth ≥80% compared to no treatment),++ (++: growth ≥80% compared to no treatment),
CCN1C(=O)CNc2ncc(-c3ccc(-c4nc[nH]n4)nc3C)nc21 [CC + 115],++ (++: growth ≥80% compared to no treatment),++ (++: growth ≥80% compared to no treatment),
Cc1cnc(-c2cnc(NCCNc3ccc(C#N)cn3)nc2-c2ccc(Cl)cc2Cl)[nH]1 [CHIR + 99021],++ (++: growth ≥80% compared to no treatment),++ (++: growth ≥80% compared to no treatment),
O=C(O)c1ccc2c(c1)nc(Nc1cccc(Cl)c1)c1cnccc12 [CX + 4945],++ (++: growth ≥80% compared to no treatment),++ (++: growth ≥80% compared to no treatment),
NC(=O)c1ccc(-c2nc(-c3ccc4c(c3)OCCO4)c(-c3ccccn3)[nH]2)cc1 [D4476],++ (++: growth ≥80% compared to no treatment),++ (++: growth ≥80% compared to no treatment),
CCn1c(=O)c(-c2ccc(-c3cncs3)cc2Cl)cc2cnc(Nc3ccc(N4CCN(C)CC4)cc3)nc21 [FRAX597],++ (++: growth ≥80% compared to no treatment),++ (++: growth ≥80% compared to no treatment),
CNc1ncc2cc(-c3ccc(-c4cccc(C)n4)cc3Cl)c(=O)n(C[C@H]3OC[C@H](N)CO3)c2n1 [G5555],,++ (++: growth ≥80% compared to no treatment),> 80%
COc1cc2c(Nc3cccc(NC(=O)c4ccccc4)c3)ncnc2cc1OCCCN1CCOCC1 [GSK223810A],,++ (++: growth ≥80% compared to no treatment),> 80%
NS(=O)(=O)c1ccc(N/N=C2\C(=O)Nc3ccc(C(=O)NCCCn4ccnc4)cc32)cc1 [GW290597X],++ (++: growth ≥80% compared to no treatment),++ (++: growth ≥80% compared to no treatment),
COc1ccc2[nH]c3c4[nH]c5ccc(OC)cc5c4c4c(c3c2c1)C(=O)NC4=O [GW296115X],++ (++: growth ≥80% compared to no treatment),++ (++: growth ≥80% compared to no treatment),
NS(=O)(=O)c1ccc(N/N=C2\C(=O)Nc3ccc(C(=O)NCc4ccncc4)cc32)cc1 [GW300657X],++ (++: growth ≥80% compared to no treatment),++ (++: growth ≥80% compared to no treatment),
